Experimental data published in patent publication US20070225339A1, “Compositions and methods for treating rheumatoid arthritis” (priority 2006, published 2007).
Entries after “also recorded” stand apart in the source; their conditions may differ.

How the values were obtained:
[1] = Oral bioavailability; details: in vivo
[2] = test system: subjects with unstable angina pectoris (UAP); experiment: Phase 2a study, safety and tolerability; assay type: in vivo, human; details: up to 40 mg/day for 5 days
Method: (§1) Five Phase 1 studies of VX-702 in healthy subjects and one Phase 2a study evaluating the safety and tolerability of VX-702 in subjects with unstable angina pectoris (UAP) who were scheduled for percutaneous coronary intervention with or without stenting were performed. Multiple dose studies of VX-702 were conducted for up to 28 days.

[3] = test system: healthy subjects; experiment: Phase 1 studies, tolerability; assay type: in vivo, human
Method: as §1

[4] = test system: subjects with moderate or severe RA; experiment: Randomized, placebo-controlled, blinded twelve-week study in RA: responses to treatment (ACR, EULAR, DAS28); assay type: in vivo, human; details: for ACR 20 Response / EULAR Response (moderate or good) / Improvement from baseline in DAS28 / Mean reduction in morning stiffness / Percent Change in Swollen Joints / Percent Change in Tender Joints / Percent Improvement in DAS / Percent reduction in morning stiffness: End of Treatment (Week 12)
Method: VX-702 was examined in a randomized, placebo-controlled, multiple-dose, blinded, dose escalation study in 315 subjects with moderate or severe RA.
Subjects were divided into 3 approximately equal-sized groups of 100-105 subjects each. In one group, subjects received 5 mg VX-702 once daily or 2.5 mg VX-702 twice daily (total 5 mg/day) for twelve weeks. Another group received 10 mg VX-702 once daily for twelve weeks. Another group subjects received placebo once daily for twelve weeks.
The subjects had to be between the ages of 18-75 years (inclusive) and have active RA of six months of duration or longer by the ACR revised criteria. The subjects had to have a C-reactive protein (CRP) serum levels of greater than 2 mg/dL at time of randomization, a swollen joint count of eight or greater (of 28) and tender joint count of 10 or greater (of 28). The subjects had to have had no prior treatment with Disease modifying anti-rheumatic drugs (DMARD) therapy or inadequate response to DMARD therapy. If a subject had received prior therapy with an antibody or binding protein to TNF (anti-TNF) or with recombinant IL-1 receptor antagonist (IL-1Ra), the subject may have discontinued treatment due to tolerability reasons but not have discontinued treatment because of an inadequate response. Subjects must also have discontinued DMARD therapy (except for sulfasalazine or hydroxychloroquine) for at least one month prior to randomization. Subjects could receive one NSAID and/or prednisone (≦10 mg/day) if they had been treated at a stable dose for at least one month prior to randomization.
Responses to treatment were evaluated by changes in ACR (e.g., ACR20) or EULAR criteria. Responses to treatment were measured at Weeks 2, 4, 6, 8, 10 and 12. Safety evaluations were also conducted at these time points. Holter monitoring and ECG were not performed at every time point. Four weeks after completion of the study, responses to treatment and safety evaluations were conducted on subjects.
ACR Preliminary Definition of Improvement in RA (ACR20):
Required: ≧20% improvement in tender joint count • ≧20% improvement in swollen joint count And, at least 20% improvement in 3 of the following 5: • Subject pain assessment • Subject global assessment • Physician global assessment • Subject self-assessed disability
Acute-phase reactant (CRP or ESR)
The ACR50 and ACR70 responses require ≧50% and ≧70% improvement, respectively, in the same criteria as described for the ACR20 response.
EULAR is described in Fransen et al., Clinical and Experimental Rheumatology 23 (Suppl. 39): S93-99, 2005, which is hereby incorporated by reference in its entirety. EULAR is based on the Disease Activity Score (DAS), a clinical index of RA disease activity that combines information from swollen joints, tender joints, the acute phase response and general health into one continuous measure of rheumatoid inflammation. DAS28 is an index similar to the original DAS, consisting of a 28 tender joint count (range 0-28), a 28 swollen joint count (range 0-28), erythrocyte sedimentation rate (ESR) and an optional general health assessment on a visual analogue scale (range 0-100).

[5] = test system: subjects with moderate or severe RA; experiment: Safety evaluations in the twelve-week RA study (adverse events, laboratory, Holter, ECG); assay type: in vivo, human; details: for Mean increase in QTcF: end of treatment, baseline approximately 400 msec, placebo −0.6 msec
Method: VX-702 was examined in a randomized, placebo-controlled, multiple-dose, blinded, dose escalation study in 315 subjects with moderate or severe RA. Subjects were divided into 3 approximately equal-sized groups of 100-105 subjects each. In one group, subjects received 5 mg VX-702 once daily or 2.5 mg VX-702 twice daily (total 5 mg/day) for twelve weeks. Another group received 10 mg VX-702 once daily for twelve weeks. Another group subjects received placebo once daily for twelve weeks. Safety evaluations of subjects in the study were also conducted. These included physical examinations, including vital signs measurements (including blood pressure, heart rate, respiration rate, and temperature); clinical laboratory assessments (hematology, chemistry, and urinalysis testing); creatinine clearance; adverse events; Holter monitoring and electrocardiogram (ECG) (12-lead). Responses to treatment were evaluated by changes in ACR (e.g., ACR20) or EULAR criteria. Responses to treatment were measured at Weeks 2, 4, 6, 8, 10 and 12. Safety evaluations were also conducted at these time points. Holter monitoring and ECG were not performed at every time point. Four weeks after completion of the study, responses to treatment and safety evaluations were conducted on subjects.

[6] = test system: patients with RA; details: standard of care in patients with RA; cited from earlier work
[7] = test system: patients with RA; details: etanercept by injection in combination with methotrexate; cited from earlier work

NC(=O)c1ccc(N(C(N)=O)c2c(F)cccc2F)nc1-c1ccc(F)cc1F [VX-702]
Oral bioavailability [1]: orally bioavailable | Severity of adverse events [2]: mild to moderate severity | Severity of adverse events ([3]; Phase 1, healthy subjects): mild or moderate severity | Tolerability ([3]; dosages of up to 20 mg/day, multiple dose up to 28 days, healthy subjects): moderately to well tolerated | ACR 20 Response ([4]; 5 mg VX-702 per day): 36% | EULAR Response (moderate or good) ([4]; 5 mg VX-702 per day): 40% | Improvement from baseline in DAS28 ([4]; 5 mg VX-702 per day): −1.0 | Mean reduction in morning stiffness ([4]; 5 mg VX-702 per day): -98 min | Percent Change in Swollen Joints ([4]; 5 mg VX-702 per day): −35% | Percent Change in Tender Joints ([4]; 5 mg VX-702 per day): −28% | Percent Improvement in DAS ([4]; 5 mg VX-702 per day): −15% | Percent reduction in morning stiffness ([4]; 5 mg VX-702 per day): −21.6% | EULAR Response (moderate or good) ([4]; 5 mg VX-702 per day, listed as 702): 40% | Symptoms of RA compared to placebo ([4]; 5 mg or 10 mg once daily for twelve weeks, Week 12): showed an improvement in their symptoms | ACR 20 Response ([4]; 10 mg VX-702 once daily): 40% | EULAR Response (moderate or good) ([4]; 10 mg VX-702 once daily): 44% | Improvement from baseline in DAS28 ([4]; 10 mg VX-702 once daily): −1.2 | Mean reduction in morning stiffness ([4]; 10 mg VX-702 once daily): -82 min | Percent Change in Swollen Joints ([4]; 10 mg VX-702 once daily): −46% | Percent Change in Tender Joints ([4]; 10 mg VX-702 once daily): −36% | Percent Improvement in DAS ([4]; 10 mg VX-702 once daily): −18% | Percent reduction in morning stiffness ([4]; 10 mg VX-702 once daily): −2.7% | ACR20 response rates, dose-response ([4]; placebo, 5 mg, 10 mg, Jonckheere-Terpstra test, p=0.02): dose-dependent statistically significant increase | Premature discontinuations for adverse events, patients ([5]; 5 mg VX-702, twelve weeks): 3% | Mean increase in QTcF ([5]; 5 mg group): 3 ms | Premature discontinuations for adverse events, patients ([5]; 10 mg VX-702, twelve weeks): 5% | Mean increase in QTcF ([5]; 10 mg group): 6 ms | Effects on laboratory parameters, including liver function tests ([5]; 5 or 10 mg/day, twelve weeks): No clinically significant effects | Severity of adverse events ([5]; 5 or 10 mg/day, twelve weeks): generally mild to moderate; also recorded: generally rated mild or moderate | Tolerability ([5]; 5 or 10 mg/day, twelve weeks): well tolerated | Holter monitoring: ventricular ectopic activity and arrhythmias versus placebo ([5]; 24 to 72-hour continuous EKG, 6 times/patient): did not reveal an increased tendency for arrhythmias | Skin disorders (rash, acne, itching), patients ([5]; VX-702-treated patients): approximately 9% | Isolated serious adverse events, patients ([5]; VX-702-treated patients (5 and 10 mg groups)): 4-7% | Infections (upper respiratory infections, gastroenteritis, nasopharyngitis, etc), patients ([5]; VX-702-treated patients, placebo 5%): 10% | Gastrointestinal disorders (nausea, vomiting, diarrhea), patients ([5]; VX-702-treated patients, placebo 6%): 8% | Patients with maximal increase in QTcF of >60 msec ([5]; at any point in the study): No patient | Patients with ALT value above the upper limit of normal ([5]; at each on-treatment visit, placebo 1-2%): 2-4% | Patients discontinued for elevations in liver function tests ([5]; twelve weeks): No patients | Patients with ALT elevation to three times the upper limit of normal ([5]; twelve weeks): No patient

CN(Cc1cnc2nc(N)nc(N)c2n1)c1ccc(C(=O)N[C@@H](CCC(=O)O)C(=O)O)cc1 [methotrexate]
Response (improvement) often observed [6]: less than 50%

etanercept
Clinical remission rate [7]: 35%
